Entries after “also recorded” stand apart in the source; their conditions may differ.
Assays:
[1] = test system: Sprague-Dawley rats; experiment: Intestinal calcium transport, everted gut sac method, in vitamin D-deficient rats; format: in vivo, rat
Method: (§1) Male, weanling Sprague-Dawley rats were placed on Diet 11 (0.47% Ca) diet+AEK for one week followed by Diet 11 (0.02% Ca)+AEK for 3 weeks. The rats were then switched to a diet containing 0.47% Ca for one week followed by two weeks on a diet containing 0.02% Ca. Dose administration began during the last week on 0.02% calcium diet. Four consecutive ip doses were given approximately 24 hours apart. Twenty-four hours after the last dose, blood was collected from the severed neck and the concentration of serum calcium determined as a measure of bone calcium mobilization. The first 10 cm of the intestine was also collected for intestinal calcium transport analysis using the everted gut sac method.

[2] = biological target: T1, full-length recombinant rat vitamin D receptor (Rattus norvegicus, UniProt P13053); experiment: Vitamin D receptor binding, competition with [3H]-1,25(OH)2D3; settings: FIG. 1
T1 construct: Full-length recombinant rat receptor was expressed in E. coli BL21 (DE3) Codon Plus RIL cells; histidine tag (C); made in house; host or cells: E. coli BL21 (DE3) Codon Plus RIL
T1 sequence (P13053 1-423): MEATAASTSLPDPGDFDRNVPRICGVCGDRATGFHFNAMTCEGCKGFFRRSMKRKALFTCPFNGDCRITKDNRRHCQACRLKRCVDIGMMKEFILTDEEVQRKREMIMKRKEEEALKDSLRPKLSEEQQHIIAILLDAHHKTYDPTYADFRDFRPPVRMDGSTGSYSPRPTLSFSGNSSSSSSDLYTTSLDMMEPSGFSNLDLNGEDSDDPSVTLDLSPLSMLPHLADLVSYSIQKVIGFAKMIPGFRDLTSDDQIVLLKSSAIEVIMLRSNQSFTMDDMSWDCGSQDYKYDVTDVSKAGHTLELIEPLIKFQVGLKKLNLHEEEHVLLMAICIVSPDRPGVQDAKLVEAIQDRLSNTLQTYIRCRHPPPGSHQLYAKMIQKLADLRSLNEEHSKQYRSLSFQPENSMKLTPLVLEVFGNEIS
Method: Full-length recombinant rat receptor was expressed in E. coli BL21 (DE3) Codon Plus RIL cells and purified to homogeneity using two different column chromatography systems. The first system was a nickel affinity resin that utilizes the C-terminal histidine tag on this protein. The protein that was eluted from this resin was further purified using ion exchange chromatography (S-Sepharose Fast Flow). Aliquots of the purified protein were quick frozen in liquid nitrogen and stored at −80° C. until use. For use in binding assays, the protein was diluted in TEDK50 (50 mM Tris, 1.5 mM EDTA, pH7.4, 5 mM DTT, 150 mM KCl) with 0.1% Chaps detergent. The receptor protein and ligand concentration were optimized such that no more than 20% of the added radiolabeled ligand was bound to the receptor.
Radiolabeled and unlabeled ligands were added to 100 mcl of the diluted protein at a final ethanol concentration of ≦10%, mixed and incubated overnight on ice to reach binding equilibrium. The following day, 100 mcl of hydroxylapatite slurry (50%) was added to each tube and mixed at 10-minute intervals for 30 minutes. The hydroxylapaptite was collected by centrifugation and then washed three times with Tris-EDTA buffer (50 mM Tris, 1.5 mM EDTA, pH 7.4) containing 0.5% Titron X-100. […] Total binding was determined from the tubes containing only radiolabeled ligand.

[3] = test system: Sprague-Dawley rats; experiment: Bone calcium mobilization (serum calcium) in vitamin D-deficient rats; format: in vivo, rat; settings: for bone calcium mobilization activity (serum calcium): vitamin D-deficient rats, low calcium diet (0.02%), four consecutive ip doses, FIG. 4
Method: as §1

[4] = test system: 24-hydroxylase (24Ohase) gene promoter in ROS 17/2.8 (bone) cells; experiment: In vitro transcription assay (24-hydroxylase gene promoter, luciferase reporter); format: cell-based; settings: FIG. 3; for EC50: ROS 17/2.8 cells, 16 hours after dosing, read-out: EC50, transcriptional activity in bone cells
Method: Transcription activity was measured in ROS 17/2.8 (bone) cells that were stably transfected with a 24-hydroxylase (24Ohase) gene promoter upstream of a luciferase reporter gene (Arbour et al., 1998). Cells were given a range of doses. Sixteen hours after dosing the cells were harvested and luciferase activities were measured using a luminometer. • RLU=relative luciferase units. Intestinal Calcium Transport and Bone Calcium Mobilization

[5] = test system: Human promyelocytic leukemia (HL60) cells; experiment: HL-60 differentiation (nitro blue tetrazolium reduction assay); format: cell-based; settings: FIG. 2; for EC50: HL60 cells, four days
Method: The study drugs were dissolved in ethanol and the concentrations determined using UV spectrophotometry. Serial dilutions were prepared so that a range of drug concentrations could be tested without changing the final concentration of ethanol (≦0.2%) present in the cell cultures.
Human promyelocytic leukemia (HL60) cells were grown in RPMI-1640 medium containing 10% fetal bovine serum. The cells were incubated at 37° C. in the presence of 5% CO2.
HL60 cells were plated at 1.2×10^5 cells/ml. Eighteen hours after plating, cells in duplicate were treated with drug. Four days later, the cells were harvested and a nitro blue tetrazolium reduction assay was performed (Collins et al., 1979; J. Exp. Med. 149:969–974). The percentage of differentiated cells was determined by counting a total of 200 cells and recording the number that contained intracellular black-blue formazan deposits. Verification of differentiation to monocytic cells was determined by measuring phagocytic activity (data not shown).

Row | Ki ([2]; full-length recombinant rat VDR) [nM] | binding to the receptor as compared to the standard 1,25-(OH)2D3 ([2]; relative to 1,25-(OH)2D3) | EC50 ([5]; Homo sapiens, HL-60, 96 h) [nM] | Compound | intestinal calcium transport ([1]; 2340 pmol/day) | bone calcium mobilization ([3]; 780 pmol/day for 4 consecutive days) | bone calcium mobilization ([3]; 2340 pmol/day) | bone calcium mobilization ([3]; 7020 pmol/day) | bone calcium mobilization activity (serum calcium) [3] | intestinal calcium transport ([1]; 780 pmol/day) | intestinal calcium transport ([1]; 7020 pmol/day) | intestinal calcium transport activity ([1]; vitamin D-deficient rats, low calcium diet (0.02%), four consecutive ip doses, FIG. 5) | transcriptional activity relative to 1α,25-dihydroxyvitamin D3 in bone cells [4] | EC50 [4] [nM] | potency on HL-60 cell differentiation compared with 1,25(OH)2D3 [5] | EC50 [5] [nM]
1 |  |  |  | 2-methylene-19-nor-1α-hydroxy-homopregnacalciferol [Compound 2MP, reference compound] | significant increase |  |  |  |  |  |  |  |  |  |  | 
2 | 0.22 | one-fifth as well | 15 | C=C1[C@H](O)CC(=C/C=C2\CCC[C@@H]3[C@@H](C(C)C)CC[C@@H]23)C[C@H]1O [18,19-dinor-2MP, 2-methylene-18,19-dinor-1α-hydroxy-homopregnacalciferol] | does not promote intestinal calcium transport | did not result in mobilization of bone calcium | without any substantial effect | without any substantial effect | no measurable bone calcium mobilization activity; also recorded: little, if any, activity in mobilizing calcium from bone | does not promote intestinal calcium transport | does not promote intestinal calcium transport | no measurable activity; also recorded: essentially devoid of intestinal calcium transport activity | one-tenth | 15 | almost as potent as 1,25(OH)2D3 | 
3 |  |  |  | C=C1/C(=C\C=C2/CCC[C@]3(C)[C@@H]([C@H](C)CCCC(C)(C)O)CC[C@@H]23)C[C@@H](O)C[C@@H]1O [1,25(OH)2D3, 1α,25-dihydroxyvitamin D3, reference compound] |  |  |  |  | increased serum calcium levels at all dosages | significant increase |  |  |  | 3.2 |  | 3.2

— patent US7238681B2, “2-Methylene-18,19-dinor-1α-hydroxy-homopregnacalciferol and its uses” (Wisconsin Alumni Research Foundation, priority 2004, dated 2007)
